This passage reports IC50, Ki and solubility results from patent publication US7915270B2, “Oxazole ketones as modulators of fatty acid amide hydrolase” (The Scripps Research Institute, priority 2006, dated 2011).

One series has as its target T1, Rat FAAH (Rattus norvegicus, UniProt P97612).
T1 construct: expressed in transfected cells
T1 sequence (P97612 1-579): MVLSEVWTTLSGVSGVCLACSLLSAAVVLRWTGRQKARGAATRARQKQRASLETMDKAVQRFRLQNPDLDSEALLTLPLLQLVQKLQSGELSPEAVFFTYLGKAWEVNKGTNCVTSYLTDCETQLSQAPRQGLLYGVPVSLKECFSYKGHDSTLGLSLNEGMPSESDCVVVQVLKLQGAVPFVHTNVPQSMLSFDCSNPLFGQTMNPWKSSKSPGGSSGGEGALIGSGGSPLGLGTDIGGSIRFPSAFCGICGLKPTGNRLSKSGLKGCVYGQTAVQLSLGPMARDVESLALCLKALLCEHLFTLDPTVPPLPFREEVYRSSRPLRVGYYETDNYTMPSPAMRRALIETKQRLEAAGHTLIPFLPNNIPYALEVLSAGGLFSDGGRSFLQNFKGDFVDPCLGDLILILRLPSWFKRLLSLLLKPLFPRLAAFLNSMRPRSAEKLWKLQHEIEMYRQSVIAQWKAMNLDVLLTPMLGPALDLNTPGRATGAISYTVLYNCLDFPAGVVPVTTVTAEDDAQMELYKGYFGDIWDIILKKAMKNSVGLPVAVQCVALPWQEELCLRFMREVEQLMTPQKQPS
Kind of series: Assay Method 2: FAAH assay, 3H-anandamide hydrolysis in cell homogenate (SK-N-MC cells transfected with rat FAAH). Format: biochemical. To be noted: 3H-AEA 80 nM, rt 1 h, pH 9. As for the experimental part:
A. Transfection of Cells with Rat FAAH
(§1) A 10-cm tissue culture dish with a confluent monolayer of SK—N-MC cells was split 2 days (d) prior to transfection. Using sterile technique, the media was removed and the cells were detached from the dish by the addition of trypsin. One fifth of the cells were then placed onto a new 10-cm dish. Cells were grown in a 37° C. incubator with 5% CO2 in Minimal Essential Media Eagle with 10% Fetal Bovine Serum. After 2 d, cells were approximately 80% confluent. These cells were removed from the dish with trypsin and pelleted in a clinical centrifuge. The pellet was re-suspended in 400 μL complete media and transferred to an electroporation cuvette with a 0.4 cm gap between the electrodes. Supercoiled rat FAAH cDNA (1 μg) was added to the cells and mixed. The voltage for the electroporation was set at 0.25 kV, and the capacitance was set at 960 μF. After electroporation, the cells were diluted into complete media (10 mL) and plated onto four 10-cm dishes. Because of the variability in the efficiency of electroporation, four different concentrations of cells were plated. The ratios used were 1:20, 1:10, and 1:5, with the remainder of the cells being added to the fourth dish. The cells were allowed to recover for 24 h before adding the selection media (complete media with 600 μg/mL G418). After 10 d, dishes were analyzed for surviving colonies of cells. Dishes with well-isolated colonies were used. Cells from individual colonies were isolated and tested.
The assay mixture consisted of 50 μL of the cell homogenate, 10 μL of the test compound, and 40 μL of anandamide [1-^3H-ethanolamine] (^3H-AEA, Perkin-Elmer, 10.3 Ci/mmol), which was added last, for a final tracer concentration of 80 nM. The reaction mixture was incubated at rt for 1 h. During the incubation, 96-well Multiscreen filter plates (catalog number MAFCNOB50; Millipore, Bedford, Mass., USA) were loaded with 25 μL of activated charcoal (Multiscreen column loader, catalog number MACL09625, Millipore) and washed once with 100 μL of MeOH. […] After the 1 h incubation, 60 μL of the reaction mixture were transferred to the charcoal plates, which were then assembled on top of the DYNEX plates using Centrifuge Alignment Frames (catalog number MACF09604, Millipore). The unbound labeled ethanolamine was centrifuged through to the bottom plate (5 min at 2000 rpm), which was preloaded with the scintillant, as described above. The plates were sealed and left at rt for 1 h before counting on a Hewlett Packard TopCount.

The target of series [1] is T2, FAAH (Rattus norvegicus, UniProt P97612).
T2 sequence (P97612 1-579): T1 sequence (P97612 1-579)
Kind of series: Assay Method 1A: FAAH enzyme assay, 14C-oleamide hydrolysis, solubilized liver plasma membrane extract.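 Also: ki obtained by Dixon analysis, taking the x-intercept of inhibitor concentration versus reciprocal rate plots at fixed substrate level and correcting for substrate concentration relative to Km.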
Description: Linear least squares fits were used for all reaction progress curves and R^2 values were consistently >0.97. […] Ki values were determined by the Dixon Method (x-intercepts of weighted linear fits of [I] versus 1/rate plots at constant substrate concentration, which were converted to Ki values using the formula Ki=−xint/[1+[S]/Km]).

The target in series [2] is T3, FAAH (Homo sapiens, UniProt O00519).
T3 sequence (O00519 1-579): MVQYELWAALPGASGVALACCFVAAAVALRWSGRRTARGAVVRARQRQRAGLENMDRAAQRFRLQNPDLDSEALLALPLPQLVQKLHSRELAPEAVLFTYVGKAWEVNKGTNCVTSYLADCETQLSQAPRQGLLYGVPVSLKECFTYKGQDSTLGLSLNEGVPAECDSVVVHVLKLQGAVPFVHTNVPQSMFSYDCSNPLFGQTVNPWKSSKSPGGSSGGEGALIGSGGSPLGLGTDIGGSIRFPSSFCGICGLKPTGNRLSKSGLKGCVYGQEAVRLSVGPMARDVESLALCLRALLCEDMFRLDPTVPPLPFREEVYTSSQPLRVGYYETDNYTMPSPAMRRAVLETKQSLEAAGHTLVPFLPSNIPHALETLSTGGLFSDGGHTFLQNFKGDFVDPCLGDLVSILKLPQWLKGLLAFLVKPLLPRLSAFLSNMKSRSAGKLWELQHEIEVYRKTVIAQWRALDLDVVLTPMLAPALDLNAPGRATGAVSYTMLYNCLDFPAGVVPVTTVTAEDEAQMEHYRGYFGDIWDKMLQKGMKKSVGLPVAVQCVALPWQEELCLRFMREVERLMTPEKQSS
Description: Assay Method 1B: FAAH assay, 3H-anandamide hydrolysis in cell homogenate (T84 or SK-N-MC cells transfected with human FAAH). The format is biochemical. Details: expressed in transfected cells. Particulars: 3H-AEA 80 nM, rt 1 h, pH 9. As for the experimental part: as §1, with “Transfection of Cells with Human FAAH A 10-cm” for “A 10-cm”, “electrodes. Supercoiled human FAAH cDNA” for “electrodes. Supercoiled rat FAAH cDNA”, “and tested. […] The reaction mixture was incubated at rt for 1 h. During the incubation, 96-well Multiscreen filter plates (catalog number MAFCNOB50; Millipore, Bedford, Mass., USA) were loaded with 25 μL of activated charcoal (Multiscreen column loader, catalog number MACL09625, Millipore) and washed once with 100 μL of MeOH. Also during the incubation, 96-well DYNEX MicroLite plates (catalog number NL510410) were loaded with 100 μL of MicroScint40 (catalog number 6013641, Packard Bioscience, Meriden, Conn., USA). After the 1 h incubation, 60 μL of the reaction mixture were transferred to the charcoal plates, which were then assembled on top of the DYNEX plates using Centrifuge Alignment Frames (catalog number MACF09604, Millipore). The unbound labeled ethanolamine was centrifuged through to the bottom plate (5 min at 2000 rpm), which was preloaded with the scintillant, as described above. The plates were sealed and left at rt for 1 h before counting on a Hewlett Packard TopCount.” for “and tested.”

Series [3] can be described thus: Solubility determination in water. The format is physicochemical. Particulars: thermodynamic from solid; in water at 5, 1 and 0.1 mg/mL; pH of resulting solutions 7-8.5. As for the experimental part:
Physical Chemical Properties
Solubility determinations were made by mixing the test compound in water at 5 mg/mL, 1 mg/mL, and 0.1 mg/mL concentrations. The pH of the resulting solutions was 7-8.5.

Structures are written as SMILES.

As a reminder, the IC50 is the concentration that gives 50% inhibition. One may read the Ki as the dissociation constant of the complex between target and ligand, obtained from inhibition or displacement. What is called solubility is the dissolved amount per volume that the medium holds. A low value points to little dissolved substance. As to `O=C(O)c1ccc(-c2cnc(C(=O)CCCCCCc3ccccc3)o2)o1` [Example 56, 5-(2-(7-Phenylheptanoyl)oxazol-5-yl)furan-2-carboxylic acid], the IC50 at Rat FAAH came out at 2 nM; at FAAH [2] it was 0.8 nM. Further, at FAAH [1], the inhibition constant Ki was found to be 15 nM. In series [3], this compound displayed a solubility above 5000 µg/mL.
Regarding `Nc1cccc(-c2cnc(C(=O)CCCCCCc3ccccc3)o2)c1` [Example 28, 1-(5-(3-Aminophenyl)oxazol-2-yl)-7-phenylheptan-1-one], the 50% inhibitory concentration (IC50) was determined as 290 nM against Rat FAAH and 17 nM against FAAH [2]. At FAAH [1], this compound came in with an inhibition constant Ki of 19 nM.
`COC(=O)c1ccc(-c2cnc(C(=O)CCCCCCc3ccccc3)o2)o1` [Example 55, Methyl 5-(2-(7-phenylheptanoyl)oxazol-5-yl)furan-2-carboxylate]: the IC50 at Rat FAAH was 20 nM; against FAAH [2], 11 nM. At FAAH [1], this compound had a Ki of 6 nM.
Consider `O=C(CCCCCCc1ccccc1)c1ncc(-c2cccc(F)c2)o1` [Example 11, 1-(5-(3-Fluorophenyl)oxazol-2-yl)-7-phenylheptan-1-one], for which the IC50 against Rat FAAH is 6300 nM; at FAAH [2], 220 nM. On FAAH [1], this compound came in with a Ki of 60 nM.
Taken in the same sequence, the figures for `COC(=O)c1ccc(-c2cnc(C(=O)CCCCCCc3ccccc3)o2)nc1` [Example 34, Methyl 6-(2-(7-phenylheptanoyl)oxazol-5-yl)nicotinate] were 9 nM, 11 nM and 4 nM.
On the same counts, the results for `COc1cccc(-c2cnc(C(=O)CCCCCCc3ccccc3)o2)c1` [Example 14, 1-(5-(3-Methoxyphenyl)oxazol-2-yl)-7-phenylheptan-1-one] are 4500 nM, 100 nM and 40 nM.
As for `NS(=O)(=O)c1cccc(-c2cnc(C(=O)CCCCCCc3ccccc3)o2)c1` [Example 20, 3-(2-(7-Phenylheptanoyl)oxazol-5-yl)benzenesulfonamide], the IC50 was found to be 27 nM on Rat FAAH and 4 nM on FAAH [2]. The affinity on FAAH [1], expressed as Ki, was 2 nM.
On the same counts, the results for `NS(=O)(=O)c1ccc(-c2cnc(C(=O)CCCCCCc3ccccc3)o2)s1` [Example 59, 5-(2-(7-Phenylheptanoyl)oxazol-5-yl)thiophene-2-sulfonamide] are 8 nM, 2 nM and 3 nM.
On the same counts, the results for `COC(=O)c1cccc(-c2cnc(C(=O)CCCCCCc3ccccc3)o2)c1` [Example 23, Methyl 3-(2-(7-phenylheptanoyl)oxazol-5-yl)benzoate] are 100 nM, 15 nM and 12 nM.
On the same counts, the results for `COC(=O)c1ccccc1-c1cnc(C(=O)CCCCCCc2ccccc2)o1` [Example 22, Methyl 2-(2-(7-phenylheptanoyl)oxazol-5-yl)benzoate] are 2200 nM, 260 nM and 60 nM.
With `COC(=O)c1cccnc1-c1cnc(C(=O)CCCCCCc2ccccc2)o1` [Example 36, Methyl 2-(2-(7-phenylheptanoyl)oxazol-5-yl)nicotinate], the IC50 against Rat FAAH was found to be 150 nM; on FAAH [2] it was 180 nM. This compound returned an inhibition constant (Ki) at FAAH [1] above 50 nM.
Taken in the same sequence, the figures for `O=C(CCCCCCc1ccccc1)c1ncc(-c2ccccc2C(=O)O)o1` [Example 60, 2-(2-(7-Phenylheptanoyl)oxazol-5-yl)benzoic acid] were 3000 nM, 440 nM and 6000 nM.
On the same counts, the results for `O=C(CCCCCCc1ccccc1)c1ncc(-c2cc(=O)[nH]c(=O)[nH]2)o1` [Example 52, 6-(2-(7-Phenylheptanoyl)oxazol-5-yl)pyrimidine-2,4(1H,3H)-dione] are 1.5 nM, 0.1 nM and 19 nM.
